Experimental data as given in patent US20220387366A1, “Compositions for Regulating Homeostasis of Cortisol and Improving Sleep Quality and Methods of Use and Production Thereof” (Unigen, Inc., priority 2021, published 2022).
Marks after values point to notes of the source that are not given here. One block for each compound: values may come before it.

Legend:
MT2 receptor = biological target: T1, MT2 receptor (Homo sapiens, UniProt P49286); test: Melatonin receptor MT2 binding assay, displacement of [125I]2-Iodomelatonin; conditions: for inhibition at 0.015625 µg/mL: 0.015625 μg/mL; for inhibition at 0.03125 µg/mL: 0.03125 μg/mL; for inhibition at 0.0625 µg/mL: 0.0625 μg/mL; for inhibition at 0.125 µg/mL: 0.125 μg/mL; for inhibition at 0.25 µg/mL: 0.25 μg/mL; for inhibition at 1 µg/mL: 1 μg/mL; for inhibition at 2 µg/mL: 2 μg/mL; for inhibition at 4 µg/mL: 4 μg/mL; for inhibition at 8 µg/mL: 8 μg/mL; for inhibition against MT2 receptor: concentration range from 8 ug/mL to 0.015625 μg/mL
T1 construct: expressed in transfected cells; host or cells: CHO-K1 cells (membranes)
T1 sequence (P49286 1-362): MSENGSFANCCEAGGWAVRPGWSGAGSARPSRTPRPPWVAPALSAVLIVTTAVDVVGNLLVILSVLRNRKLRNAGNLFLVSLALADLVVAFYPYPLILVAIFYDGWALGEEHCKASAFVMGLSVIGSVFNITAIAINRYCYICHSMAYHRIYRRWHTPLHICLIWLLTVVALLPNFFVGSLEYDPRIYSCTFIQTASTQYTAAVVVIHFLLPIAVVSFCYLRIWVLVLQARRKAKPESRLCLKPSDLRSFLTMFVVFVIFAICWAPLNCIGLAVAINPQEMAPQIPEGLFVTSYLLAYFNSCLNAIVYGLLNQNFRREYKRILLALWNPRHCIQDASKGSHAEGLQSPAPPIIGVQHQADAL

MT1 receptor = biological target: T2, MT1 receptor (Homo sapiens, UniProt P48039); test: Melatonin receptor MT1 binding assay, displacement of [125I]2-Iodomelatonin; conditions: for inhibition at 0.015625 µg/mL: 0.015625 μg/mL; for inhibition at 0.03125 µg/mL: 0.03125 μg/mL; for inhibition at 0.0625 µg/mL: 0.0625 μg/mL; for inhibition at 0.125 µg/mL: 0.125 μg/mL; for inhibition at 0.25 µg/mL: 0.25 μg/mL; for inhibition at 0.5 µg/mL: 0.5 μg/mL; for inhibition at 1 µg/mL: 1 μg/mL; for inhibition at 2 µg/mL: 2 μg/mL; for inhibition at 4 µg/mL: 4 μg/mL; for inhibition at 8 µg/mL: 8 μg/mL; for inhibition against MT1 receptor: concentration range from 8 ug/mL to 0.015625 μg/mL
T2 construct: expressed in transfected cells; host or cells: CHO-K1 cells (membranes)
Protocol: Human recombinant melatonin receptors (MT1 and MT2) were expressed in CHO-K1 cells and resuspended in buffer. The membranes containing recombinant receptors were incubated with test compounds in combination with 0.05 nM [125I]2-lodomelatonin for 180 minutes at 25° C. Membranes were immobilized on filters before being washed and the [125I]2-Iodomelatonin was counted. Test compounds that bound to MT1 or MT2 in the same binding site as melatonin displaced [125I]2-lodomelatonin, reducing the count. […] 0.00021 μM Melatonin was used as a positive control to displace [125I]2-Iodomelatonin (Paul et al., 1999; Beresford et al., 1998).
All samples were dissolved in 1% DMSO.

Male BALB/C mice [1] = test: Sleep time induced by pentobarbital sodium (36 mg/kg i.p.) after 32 days of dosing; format: in vivo
Protocol: Male BALB/C mice (18 g˜22 g) were randomly assigned to groups of vehicle control (sterile water); positive control group, melatonin 1 mg/kg BW (0.1 g/L); low dose group, a composition derived from enriched for one or more phenylpropanoid acids and benzoxazinoids 250 mg/kg BW (25 g/L in sterile water); middle dose group, a composition derived from enriched for one or more phenylpropanoid acids and benzoxazinoids 500 mg/kg BW (50 g/L in sterile water); and high dose group, a composition derived from enriched for one or more phenylpropanoid acids and benzoxazinoids 1000 mg/kg BW (100 g/L in sterile water). Each animal received the respective dose daily for 32 consecutive days. 15 min after the last dose, each group of mice was intraperitoneally injected with 36 mg/kg pentobarbital sodium (in 0.1 mL/10 g). The sleep time of each mouse was recorded and the difference of sleep time between a composition derived from enriched for one or more phenylpropanoid acids and benzoxazinoids-treated groups and vehicle control was determined.

Male BALB/C mice [2] = test: Sleep latency / sleeping incidence with subthreshold pentobarbital sodium (26 mg/kg i.p.) after 32 days of dosing; format: in vivo; conditions: 1 mg/kg
Protocol: Male BALB/C mice (18 g˜22 g) were randomly assigned to groups of vehicle control (sterile water); positive control group, melatonin 1 mg/kg BW (0.1 g/L); low dose group, a composition derived from enriched for one or more phenylpropanoid acids and benzoxazinoids 250 mg/kg BW (25 g/L in sterile water); middle dose group, a composition derived from enriched for one or more phenylpropanoid acids and benzoxazinoids 500 mg/kg BW (50 g/L in sterile water); and high dose group, a composition derived from enriched for one or more phenylpropanoid acids and benzoxazinoids 1000 mg/kg BW (100 g/L in sterile water). Each animal received the respective dose daily for 32 consecutive days. Mice from each group were intraperitoneally injected with 26 mg/kg pentobarbital sodium (0.1 mL/10 g BW), 15 min after the last dose to induce subthreshold hypnosis. The numbers of mice that lose the reflex to turnover to the right side over 1 min after injection of pentobarbital sodium were recorded for 30 min. The incidence of sleeping mice was analyzed to compare the difference between the tested substance groups and vehicle control. Latency of sleep is the number of animals with loss of the righting reflex in duration of time elapsed after pentobarbital administrations. […] As a result, the subthreshold dose of pentobarbital was given to each mouse 15 min after the last dose of test materials to assess the effect of materials on sleep latency. Thirty minutes post pentobarbital injection, the number of mice with no reflex to turn over to the right side over the duration of 1 min was recorded. Data were reported as incidence of sleeping. […] These incidences were statistically significant for both the high dose of UP165 and melatonin compared to the vehicle control animals. In comparison, the incidence in the vehicle-treated group was only 20%. Positive trends (60% of mice both in the 250 and 500 mg/kg group) were also observed for the low and mid doses of UP165.

Male BALB/C mice [3] = test: Acute effect on sleep following a single oral administration; format: in vivo; conditions: single oral 1 mg/kg
Protocol: Male BALB/C mice (18 g˜22 g) were randomly assigned to groups of vehicle control (sterile water); positive control group, melatonin 1 mg/kg BW (0.1 g/L); low dose group, a composition derived from enriched for one or more phenylpropanoid acids and benzoxazinoids 250 mg/kg BW (25 g/L in sterile water); middle dose group, a composition derived from enriched for one or more phenylpropanoid acids and benzoxazinoids 500 mg/kg BW (50 g/L in sterile water); and high dose group, a composition derived from enriched for one or more phenylpropanoid acids and benzoxazinoids 1000 mg/kgBW (100 g/L in sterile water). Mice were administered the respective treatment group and observed for 60 min monitor the direct impact of test compounds on sleep following a single oral administration. When naive mice are placed into a supine position, they instantaneously turn to the upright position. However, mice under the hypnotic dose of pentobarbital remain on the supine position for measurable amount of time. Sleeping was indexed as the disappearance of reflex to turnover to the right side, and mouse was considered asleep when the time to turn over to the side was over 30 s after mouse was treated with a composition derived from enriched for one or more phenylpropanoid acids and benzoxazinoids. In the current study, none of the treatment groups induce sleep following a single oral administration (Table 15).

T2 sequence (P48039 whole entry): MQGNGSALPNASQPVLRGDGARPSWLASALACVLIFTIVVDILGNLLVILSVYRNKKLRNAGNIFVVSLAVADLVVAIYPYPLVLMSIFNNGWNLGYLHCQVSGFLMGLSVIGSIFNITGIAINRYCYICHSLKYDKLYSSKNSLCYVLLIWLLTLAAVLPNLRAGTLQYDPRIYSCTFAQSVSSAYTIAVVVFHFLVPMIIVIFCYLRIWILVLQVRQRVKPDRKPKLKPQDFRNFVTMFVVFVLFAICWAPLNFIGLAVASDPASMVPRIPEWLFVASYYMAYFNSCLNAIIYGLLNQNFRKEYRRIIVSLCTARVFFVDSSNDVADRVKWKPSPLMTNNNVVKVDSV

Compound: 3-methoxy-hydrocoumaric acid
- MT2 receptor binding (inhibition) (MT2 receptor; isolated compounds, 0.5 μg/mL): 8.9%
- MT2 receptor binding (inhibition) (MT2 receptor; isolated compounds, 2.5 μg/mL): 22.9%

Compound: COc1ccc2nc(O)oc2c1 [6-MBOA, 6-methoxy-2-benzoxazolol, reference compound]
- inhibition at 0.0032 µM (MT1 receptor; 0.0032 μM): 2%
- inhibition at 0.0064 µM (MT1 receptor; 0.0064 μM): 3%
- inhibition at 0.013 µM (MT1 receptor; 0.013 μM): 8%
- inhibition at 0.025 µM (MT1 receptor; 0.025 μM): 11%
- inhibition at 0.051 µM (MT1 receptor; 0.051 μM): 5%
- inhibition at 0.102 µM (MT1 receptor; 0.102 μM): 1%
- inhibition at 0.204 µM (MT1 receptor; 0.204 μM): 7%
- inhibition at 0.407 µM (MT1 receptor; 0.407 μM): 6%
- inhibition at 0.815 µM (MT1 receptor; 0.815 μM): 7%
- inhibition at 1.63 µM (MT1 receptor; 1.63 μM): 8%
- inhibition of 2-lodomelatonin binding to MT1 (MT1 receptor; at the concentrations tested (3.2 nM to 1.63 μM)): did not inhibit
- inhibition at 0.815 µM (MT2 receptor; 0.815 μM): -12%
- inhibition at 1.63 µM (MT2 receptor; 1.63 μM): -4%
- inhibition at 3.26 µM (MT2 receptor; 3.26 μM): 8%
- inhibition at 6.52 µM (MT2 receptor; 6.52 μM): 11%
- inhibition at 13.04 µM (MT2 receptor; 13.04 μM): 15%
- inhibition of 2-lodomelatonin binding to MT2 (MT2 receptor; at the concentrations tested (0.815 to 13.04 μM)): did not inhibit

Compound: COc1cc(/C=C/C(=O)O)ccc1O [Ferulic acid]
- inhibition at 0.5 µg/mL (MT2 receptor; isolated compounds, 0.5 μg/mL): 2.6%
- inhibition at 2.5 µg/mL (MT2 receptor; isolated compounds, 2.5 μg/mL): 1.6%

Compound: COc1ccc2c(c1)OC(O)C(=O)N2 (stereo not drawn) [HMBOA, 2-Hydroxy-7-methoxy-2H-1,4-benzoxazin-3(4H)-one]
- inhibition at 0.5 µg/mL (MT2 receptor; isolated compounds, 0.5 μg/mL): 3.9%
- inhibition at 2.5 µg/mL (MT2 receptor; isolated compounds, 2.5 μg/mL): 28%

Compound: COc1ccc2[nH]cc(CCNC(C)=O)c2c1 [Melatonin]
- increase in sleep time compared to vehicle control (Male BALB/C mice [1]; 1 mg/kg): 12.0 ± 1.3 min
- Sleep Time (Male BALB/C mice [1]; 1 mg/kg daily for 32 days, Mean ± SD): 42.6 ± 10.7 min
- Incidence of sleeping (Male BALB/C mice [2]): 80%*
- Sleeping No. (Male BALB/C mice [2]; of 15 mice): 12
- Incidence of sleeping (Male BALB/C mice [2]; listed as melatonin): 80%
- Incidence of sleeping (Male BALB/C mice [3]): 0%
- Sleeping No. (Male BALB/C mice [3]; of 15 mice): 0

Results, then the compound that gave them:

- inhibition at 0.015625 µg/mL (MT1 receptor): 3%
- inhibition at 0.03125 µg/mL (MT1 receptor): 1%
- inhibition at 0.0625 µg/mL (MT1 receptor): -4%
- inhibition at 0.125 µg/mL (MT1 receptor): -1%
- inhibition at 0.25 µg/mL (MT1 receptor): 0%
- inhibition at 0.5 µg/mL (MT1 receptor): -5%
- inhibition at 1 µg/mL (MT1 receptor): -2%
- inhibition at 2 µg/mL (MT1 receptor): -4%
- inhibition at 4 µg/mL (MT1 receptor): -5%
- inhibition at 8 µg/mL (MT1 receptor): 0%
- inhibition against MT1 receptor (MT1 receptor): Neither compound show any inhibition
- inhibition at 0.015625 µg/mL (MT2 receptor): 4%
- inhibition at 0.03125 µg/mL (MT2 receptor): 2%
- inhibition at 0.0625 µg/mL (MT2 receptor): 1%
- inhibition at 0.125 µg/mL (MT2 receptor): -6%
- inhibition at 0.25 µg/mL (MT2 receptor): 5%
- inhibition at 0.5 µg/mL (MT2 receptor; 0.5 μg/mL): 4%
- inhibition at 1 µg/mL (MT2 receptor): 3%
- inhibition at 2 µg/mL (MT2 receptor): 10%
- inhibition at 4 µg/mL (MT2 receptor): 5%
- inhibition at 8 µg/mL (MT2 receptor): 3%
- inhibition against MT2 receptor (MT2 receptor): Neither compound show any inhibition
Compound: COc1ccc2c(c1)OC(O[C@@H]1O[C@H](CO)[C@@H](O)[C@H](O)[C@H]1O)C(=O)N2 (stereo partly drawn) [MW357, 2-(β-D-Glucopyranosyloxy)-7-methoxy-2H-1,4-benzoxazin-3(4H)-one]

- inhibition at 0.015625 µg/mL (MT1 receptor): 2%
- inhibition at 0.03125 µg/mL (MT1 receptor): -3%
- inhibition at 0.0625 µg/mL (MT1 receptor): -6%
- inhibition at 0.125 µg/mL (MT1 receptor): -2%
- inhibition at 0.25 µg/mL (MT1 receptor): 6%
- inhibition at 0.5 µg/mL (MT1 receptor): 6%
- inhibition at 1 µg/mL (MT1 receptor): 1%
- inhibition at 2 µg/mL (MT1 receptor): -1%
- inhibition at 4 µg/mL (MT1 receptor): -5%
- inhibition at 8 µg/mL (MT1 receptor): 3%
- inhibition against MT1 receptor (MT1 receptor): Neither compound show any inhibition
- inhibition at 0.015625 µg/mL (MT2 receptor): -4%
- inhibition at 0.03125 µg/mL (MT2 receptor): -6%
- inhibition at 0.0625 µg/mL (MT2 receptor): -2%
- inhibition at 0.125 µg/mL (MT2 receptor): -6%
- inhibition at 0.25 µg/mL (MT2 receptor): -3%
- inhibition at 0.5 µg/mL (MT2 receptor; 0.5 μg/mL): 7%
- inhibition at 1 µg/mL (MT2 receptor): -2%
- inhibition at 2 µg/mL (MT2 receptor): 0%
- inhibition at 4 µg/mL (MT2 receptor): 3%
- inhibition at 8 µg/mL (MT2 receptor): 4%
- inhibition against MT2 receptor (MT2 receptor): Neither compound show any inhibition
Compound: COc1ccc2c(c1)OC(O[C@@H]1O[C@H](CO)[C@@H](O)[C@H](O)[C@H]1O)C(=O)N2OC (stereo partly drawn) [MW387, 2-(β-D-Glucopyranosyloxy)-4,7-dimethoxy-2H-1,4-benzoxazin-3(4H)-one]

- inhibition at 5 µg/mL (MT2 receptor; isolated compounds, 5 μg/mL): 69%
- inhibition at 25 µg/mL (MT2 receptor; isolated compounds, 25 μg/mL): 94%
Compound: O=C(O)CCc1ccc(O)cc1 [Phloretic acid]

- inhibition at 0.5 µg/mL (MT2 receptor; isolated compounds, 0.5 μg/mL): 0.5%
- inhibition at 2.5 µg/mL (MT2 receptor; isolated compounds, 2.5 μg/mL): 6.7%
Compound: O=C(O)/C=C/c1ccc(O)cc1 [p-coumaric acid]
